Laboratory results: US8084621B2, “3-Pyrrolo[b]cyclohexylene-2-dihydroindolinone derivatives and uses thereof” (Jiangsu Simcere Pharmaceutical R&D Co. Ltd., priority 2006, dated 2011)

Molecular target: T1, PDGFR-β (Homo sapiens, UniProt P09619)
T1 construct: purchased Cell Signaling Technology CO
Test: Protein kinase activity by ELISA in vitro, PDGFR-β
Type: biochemical
Conditions: concentration of 10^−7 mol/L; read-out: kinase inhibition ratio, PDGFR-β
Text: An ELISA (Enzyme-Linked Immunosorbent Sandwich Assay) procedure may be used to detect and measure the level of protein tyrosine kinase activity. Tyrosine kinases such as VEGFR-2, PDGFR-β and c-Kit etc. catalyze the phosphorylation reaction of ATP and biotin-labeled peptide substrate, which will be ceased when the kinase activity is inhibited. According to the principle of ELISA, a monoclonal antibody can react with phosphorylated substrate specially, so biotin-labeled substrate is binded to streptavidin-coated ELISA plate, and then binded to a HRP-labeled goat anti-mouse antibody. Finally TMB is added for a color reaction and the value of A450-A630 is read by ELISA plate reader. The OD value can reflect the inhibitory activity of the VEGFR-2, PDGFR-β, c-Kit tyrosine kinases etc. treated with the test compounds at the different concentrations. So, the assay may be used to measure the inhibition ratio of the compounds for the tyrosine kinase activity. Similar assays can be designed along the same lines for any PK using techniques well known in the art. Tyrosine kinases such as VEGFR-2, PDGFR-β and c-Kit etc. catalyze the phosphorylation reaction of ATP and biotin-labeled peptide substrate, which will be ceased when the kinase activity is inhibited. According to the principle of ELISA, a monoclonal antibody can react with phosphorylated substrate specially, so biotin-labeled substrate is binded to streptavidin-coated ELISA plate, and then binded to a HRP-labeled goat anti-mouse antibody. Finally TMB is added for a color reaction and the value of A450-A630 is read by ELISA plate reader. The OD value can reflect the inhibitory activity of the VEGFR-2, PDGFR-β c-Kit tyrosine kinases treated with the test compounds at the different concentrations. So, the assay may be used to measure the inhibition ratio of the compounds for the tyrosine kinase activity. Similar assays can be designed along the same lines for any PK using techniques well known in the art. VEGF Receptor 2, PDGF Receptor-beta and c-kit kinase assay kit (include kinase, 1.25M DTT, substrate peptide, 10 mM ATP, P-[…] Mouse antibody, 4×HTScan tyrosine kinase buffer), Cell Signaling Technology CO.; HRP labeled goat anti mouse IgG, Protein Tech CO.; TMB, Pierce CO.; Streptavidin Microtitration Plate, Greiner Bio-one CO.; Infinite M200 Reader, Tecan CO. 1.2.1 Immediately transfer enzyme from -80° C. to ice. Allow enzyme to thaw on ice then at 4° C. and centrifugate transiently to the bottom of centrifuge tube, then lay back on ice quickly 1.2.2 Add 10 μl of DTT (1.25 M) to 2.5 ml of 4×HTScan tyrosine kinase buffer (240 mM HEPES pH 7.5, 20 mM MgCl2, 20 mM MnCl2, 12 μM Na3VO4). Transfer 0.6 ml of DTT/Kinase buffer to each enzyme tube to make 4× reaction Cocktail. Incubate 12.5 μl of the 4× reaction cocktail with 12.5 μl/well prediluted compound of interest for 5 minutes at room temperature, and set blank control, free-enzyme control, negative control and positive control. 1.2.3 Add 10 μl 10 mM ATP to 1.25 ml 6 μM substrate peptide. Dilute the mixture with dH20 to 2.5 ml to make 2×ATP/substrate cocktail. Add 25 μl of 2×ATP/substrate cocktail to 25 μl/well preincubated reaction cocktail/compound. Incubate reaction plate at room temperature for 30 minutes. 1.2.4 Add 50 μl/well stop Buffer (50 mM EDTA, pH 8) to stop the reaction. Transfer 25 μl of each reaction and 75 μl dH2O/well to a 96-well streptavidin coated plate and incubate at room temperature for 60 minutes. Wash three times with 200 μl/well PBS/T(1×PBS, 0.05% Tween-20). 1.2.5 Dilute primary antibody, Phospho-Tyrosine mAb (P-[…]), 1:500 in PBS/T with 1% BSA. Add 100 μl/well primary antibody. Incubate at room temperature for 60 minutes. Wash three times with 200 μl/well PBS/T(1×PBS, 0.05% Tween-20). 1.2.6 Prepare appropriate dilution of HRP labeled secondary antibody, 1:500 in PBS/T with 1% BSA. Add 100 μl/well secondary antibody solution. Incubate at room temperature for 30 minutes. […]

T1 sequence (P09619 33-1106): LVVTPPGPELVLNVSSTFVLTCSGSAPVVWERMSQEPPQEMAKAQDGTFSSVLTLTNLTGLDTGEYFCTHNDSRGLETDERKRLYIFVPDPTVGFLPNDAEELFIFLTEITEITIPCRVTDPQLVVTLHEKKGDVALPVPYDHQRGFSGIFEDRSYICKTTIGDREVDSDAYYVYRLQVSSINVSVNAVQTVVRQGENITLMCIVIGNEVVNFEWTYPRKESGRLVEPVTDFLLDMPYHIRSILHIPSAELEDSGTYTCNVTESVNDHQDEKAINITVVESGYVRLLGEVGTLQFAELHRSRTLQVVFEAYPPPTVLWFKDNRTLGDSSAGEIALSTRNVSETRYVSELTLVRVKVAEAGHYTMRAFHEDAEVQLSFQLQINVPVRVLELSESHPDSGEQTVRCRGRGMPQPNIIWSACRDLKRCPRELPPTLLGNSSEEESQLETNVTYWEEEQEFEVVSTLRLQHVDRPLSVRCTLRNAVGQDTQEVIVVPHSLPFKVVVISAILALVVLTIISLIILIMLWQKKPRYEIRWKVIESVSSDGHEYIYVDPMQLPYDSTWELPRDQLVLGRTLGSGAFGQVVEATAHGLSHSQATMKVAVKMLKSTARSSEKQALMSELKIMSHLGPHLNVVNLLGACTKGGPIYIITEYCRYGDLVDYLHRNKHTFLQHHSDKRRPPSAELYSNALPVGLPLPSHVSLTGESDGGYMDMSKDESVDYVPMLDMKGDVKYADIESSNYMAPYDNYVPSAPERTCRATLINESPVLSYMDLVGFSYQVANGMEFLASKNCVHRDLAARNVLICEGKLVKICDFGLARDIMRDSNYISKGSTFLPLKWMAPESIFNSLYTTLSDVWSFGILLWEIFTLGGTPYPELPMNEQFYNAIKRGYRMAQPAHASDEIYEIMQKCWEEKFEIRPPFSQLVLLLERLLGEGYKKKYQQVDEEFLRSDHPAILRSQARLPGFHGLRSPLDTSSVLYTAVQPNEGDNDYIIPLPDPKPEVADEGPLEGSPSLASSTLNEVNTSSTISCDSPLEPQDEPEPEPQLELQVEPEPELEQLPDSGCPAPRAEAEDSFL

inhibition at 0.1 µM	Structure (SMILES)
86%	Cc1[nH]c2c(c1C(=O)NCCCN(C)C)CCC/C2=C1/C(=O)Nc2ccc(Cl)cc21 [I-7, N-(3-(dimethylamino)propyl)-2-methyl-7-[1,2-dihydro-5-chloro-2-oxo-3H-indol-(Z)-3-ylidene]-4,5,6,7-tetrahydro-1H-indole-3-carboxamide]
89%	Cc1[nH]c2c(c1C(=O)NCCO)CCC/C2=C1/C(=O)Nc2ccccc21 [I-8, N-(2-hydroxyethyl)-2-methyl-7-[1,2-dihydro-2-oxo-3H-indol-(Z)-3-ylidene]-4,5,6,7-tetrahydro-1H-indole-3-carboxamide]
85%	Cc1[nH]c2c(c1C(=O)NCC(O)CN1CCCC1)CCC/C2=C1/C(=O)Nc2ccccc21 (stereo not drawn) [I-70, N-(2-hydroxy-3-(pyrrolidin-1-yl)propyl)-2-methyl-7-[1,2-dihydro-2-oxo-3H-indol-(Z)-3-ylidene]-4,5,6,7-tetrahydro-1H-indole-3-carboxamide]
87%	CCN(CC)CC(O)CNC(=O)c1c(C)[nH]c2c1CCC/C2=C1/C(=O)Nc2ccccc21 (stereo not drawn) [I-63, N-(3-(diethylamino)-2-hydroxypropyl)-2-methyl-7-[1,2-dihydro-2-oxo-3H-indol-(Z)-3-ylidene]-4,5,6,7-tetrahydro-1H-indole-3-carboxamide]

Continued, compound first:

Structure (SMILES)	inhibition at 0.1 µM
CCN(CC)CCNC(=O)c1c(C)[nH]c2c1CCC/C2=C1/C(=O)Nc2ccc(C)cc21 [I-4, N-(2-(diethylamino)ethyl)-2-methyl-7-[1,2-dihydro-5-methyl-2-oxo-3H-indol-(Z)-3-ylidene]-4,5,6,7-tetrahydro-1H-indole-3-carboxamide]	86%
Cc1[nH]c2c(c1C(=O)NCCN(C)C)CCC/C2=C1/C(=O)Nc2ccc(F)cc21 [I-6, N-(2-(dimethylamino)ethyl)-2-methyl-7-[1,2-dihydro-5-fluoro-2-oxo-3H-indol-(Z)-3-ylidene]-4,5,6,7-tetrahydro-1H-indole-3-carboxamide]	85%
CCN(CC)CCNC(=O)c1c(C)[nH]c2c1CCC/C2=C1/C(=O)Nc2ccc(Cl)cc21 [I-3, N-(2-(diethylamino)ethyl)-2-methyl-7-[1,2-dihydro-5-chloro-2-oxo-3H-indol-(Z)-3-ylidene]-4,5,6,7-tetrahydro-1H-indole-3-carboxamide]	88%
CCN(CC)CCNC(=O)c1c(C)[nH]c2c1CCC/C2=C1/C(=O)Nc2ccccc21 [I-5, N-(2-(diethylamino)ethyl)-2-methyl-7-[1,2-dihydro-2-oxo-3H-indol-(Z)-3-ylidene]-4,5,6,7-tetrahydro-1H-indole-3-carboxamide]	87%
CCN(CC)CCNC(=O)c1c(C)[nH]c2c1CCC/C2=C1/C(=O)Nc2ccc(F)cc21 [I-2, N-(2-(diethylamino)ethyl)-2-methyl-7-[1,2-dihydro-5-fluoro-2-oxo-3H-indol-(Z)-3-ylidene]-4,5,6,7-tetrahydro-1H-indole-3-carboxamide]	90%
